Assay results taken from PubChem BioAssay (NCI).
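Tested at 5 concentrations; 48 h exposure; 96-well plates; endpoints linearly interpolated, else capped at highest concentration. TGI is the concentration that stops growth completely.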

How the values were obtained:
Assay in all cases: DTP human tumour cell line panel, 48 h
786-0 renal = test system: 786-0 renal
A498 renal = test system: A498 renal
A549 NSCLC = test system: A549 NSCLC
ACHN renal = test system: ACHN renal
BT-549 breast = test system: BT-549 breast
CAKI-1 renal = test system: CAKI-1 renal
CCRF-CEM leukemia = test system: CCRF-CEM leukemia
COLO 205 colon = test system: COLO 205 colon
DU-145 prostate = test system: DU-145 prostate
EKVX NSCLC = test system: EKVX NSCLC
HCC-2998 colon = test system: HCC-2998 colon
HCT-116 colon = test system: HCT-116 colon
HCT-15 colon = test system: HCT-15 colon
HL-60(TB) leukemia = test system: HL-60(TB) leukemia
HOP-62 NSCLC = test system: HOP-62 NSCLC
HOP-92 NSCLC = test system: HOP-92 NSCLC
HS 578T breast = test system: HS 578T breast
HT29 colon = test system: HT29 colon
K-562 leukemia = test system: K-562 leukemia
KM12 colon = test system: KM12 colon
M14 melanoma = test system: M14 melanoma
MALME-3M melanoma = test system: MALME-3M melanoma
MCF7 breast = test system: MCF7 breast
MDA-MB-231 breast = test system: MDA-MB-231 breast
MDA-N = test system: MDA-N
MOLT-4 leukemia = test system: MOLT-4 leukemia
NCI-H226 lung = test system: NCI-H226 lung
NCI-H23 lung = test system: NCI-H23 lung
NCI-H460 lung = test system: NCI-H460 lung
NCI-H522 lung = test system: NCI-H522 lung
NCI/ADR-RES ovarian = test system: NCI/ADR-RES ovarian
OVCAR-4 ovarian = test system: OVCAR-4 ovarian
OVCAR-5 ovarian = test system: OVCAR-5 ovarian
OVCAR-8 ovarian = test system: OVCAR-8 ovarian
PC-3 prostate = test system: PC-3 prostate
SF-268 CNS = test system: SF-268 CNS
SF-295 CNS = test system: SF-295 CNS
SF-539 CNS = test system: SF-539 CNS
SK-MEL-2 melanoma = test system: SK-MEL-2 melanoma
SK-MEL-28 melanoma = test system: SK-MEL-28 melanoma
SK-MEL-5 melanoma = test system: SK-MEL-5 melanoma
SK-OV-3 ovarian = test system: SK-OV-3 ovarian
SN12C renal = test system: SN12C renal
SNB-19 CNS = test system: SNB-19 CNS
SNB-75 CNS = test system: SNB-75 CNS
SR leukemia = test system: SR leukemia
SW-620 colon = test system: SW-620 colon
T-47D breast = test system: T-47D breast
TK-10 renal = test system: TK-10 renal
U251 CNS = test system: U251 CNS
UACC-257 melanoma = test system: UACC-257 melanoma
UO-31 renal = test system: UO-31 renal
IGROV1 ovarian = test system: IGROV1 ovarian
LOX IMVI melanoma = test system: LOX IMVI melanoma
MDA-MB-435 = test system: MDA-MB-435
OVCAR-3 ovarian = test system: OVCAR-3 ovarian
RPMI-8226 leukemia = test system: RPMI-8226 leukemia
RXF 393 renal = test system: RXF 393 renal
UACC-62 melanoma = test system: UACC-62 melanoma

C/C(=N\Nc1nc2ccccc2n1C)c1ccncn1
TGI (786-0 renal): 20.3 µM | TGI (A498 renal): 5.79 µM | TGI (A549 NSCLC): > 32 µM | TGI (ACHN renal): 30.9 µM | TGI (BT-549 breast): > 100 µM | TGI (CAKI-1 renal): > 75 µM | TGI (CCRF-CEM leukemia): > 52.6 µM | TGI (COLO 205 colon): > 100 µM | TGI (DU-145 prostate): > 44.7 µM | TGI (EKVX NSCLC): > 47.7 µM | TGI (HCC-2998 colon): > 100 µM | TGI (HCT-116 colon): > 39.8 µM | TGI (HCT-15 colon): > 88.1 µM | TGI (HL-60(TB) leukemia): 0.0439 µM | TGI (HOP-62 NSCLC): > 100 µM | TGI (HOP-92 NSCLC): 2.64 µM | TGI (HS 578T breast): > 100 µM | TGI (HT29 colon): 30.3 µM | TGI (K-562 leukemia): > 100 µM | TGI (KM12 colon): 30.7 µM | TGI (M14 melanoma): 0.44 µM | TGI (MALME-3M melanoma): > 100 µM | TGI (MCF7 breast): > 100 µM | TGI (MDA-MB-231 breast): > 76.6 µM | TGI (MDA-N): > 100 µM | TGI (MOLT-4 leukemia): > 100 µM | TGI (NCI-H226 lung): > 45.7 µM | TGI (NCI-H23 lung): > 100 µM | TGI (NCI-H460 lung): > 100 µM | TGI (NCI-H522 lung): > 31.4 µM | TGI (NCI/ADR-RES ovarian): 0.458 µM | TGI (OVCAR-4 ovarian): > 100 µM | TGI (OVCAR-5 ovarian): > 100 µM | TGI (OVCAR-8 ovarian): > 40.9 µM | TGI (PC-3 prostate): > 100 µM | TGI (SF-268 CNS): > 100 µM | TGI (SF-295 CNS): > 100 µM | TGI (SF-539 CNS): 21.8 µM | TGI (SK-MEL-2 melanoma): > 100 µM | TGI (SK-MEL-28 melanoma): 0.168 µM | TGI (SK-MEL-5 melanoma): 11.6 µM | TGI (SK-OV-3 ovarian): > 100 µM | TGI (SN12C renal): > 100 µM | TGI (SNB-19 CNS): > 100 µM | TGI (SNB-75 CNS): > 70.9 µM | TGI (SR leukemia): > 100 µM | TGI (SW-620 colon): > 47.6 µM | TGI (T-47D breast): > 100 µM | TGI (TK-10 renal): > 100 µM | TGI (U251 CNS): > 32.9 µM | TGI (UACC-257 melanoma): > 100 µM | TGI (UO-31 renal): 22.9 µM

C/C(=C\c1ccccc1)n1c(=O)cc(C)n1C
TGI (A549 NSCLC): > 100 µM | TGI (ACHN renal): > 100 µM | TGI (BT-549 breast): > 100 µM | TGI (CAKI-1 renal): > 100 µM | TGI (CCRF-CEM leukemia): > 100 µM | TGI (COLO 205 colon): > 100 µM | TGI (DU-145 prostate): > 100 µM | TGI (EKVX NSCLC): > 100 µM | TGI (HCC-2998 colon): > 100 µM | TGI (HCT-116 colon): > 100 µM | TGI (HOP-62 NSCLC): > 100 µM | TGI (HOP-92 NSCLC): > 100 µM | TGI (HS 578T breast): > 100 µM | TGI (HT29 colon): > 100 µM | TGI (IGROV1 ovarian): > 100 µM | TGI (K-562 leukemia): > 100 µM | TGI (KM12 colon): > 100 µM | TGI (LOX IMVI melanoma): > 100 µM | TGI (M14 melanoma): > 100 µM | TGI (MCF7 breast): > 100 µM | TGI (MDA-MB-435): > 100 µM | TGI (MDA-N): > 100 µM | TGI (MOLT-4 leukemia): > 100 µM | TGI (NCI-H226 lung): > 100 µM | TGI (NCI-H23 lung): > 100 µM | TGI (NCI-H460 lung): > 100 µM | TGI (NCI/ADR-RES ovarian): > 100 µM | TGI (OVCAR-3 ovarian): > 100 µM | TGI (OVCAR-4 ovarian): > 100 µM | TGI (OVCAR-5 ovarian): > 100 µM | TGI (OVCAR-8 ovarian): > 100 µM | TGI (PC-3 prostate): > 100 µM | TGI (RPMI-8226 leukemia): > 100 µM | TGI (RXF 393 renal): > 100 µM | TGI (SF-268 CNS): > 100 µM | TGI (SF-295 CNS): > 100 µM | TGI (SF-539 CNS): > 100 µM | TGI (SK-MEL-2 melanoma): > 100 µM | TGI (SK-MEL-28 melanoma): > 100 µM | TGI (SK-MEL-5 melanoma): > 100 µM | TGI (SK-OV-3 ovarian): > 100 µM | TGI (SN12C renal): > 100 µM | TGI (SNB-19 CNS): > 100 µM | TGI (SNB-75 CNS): > 100 µM | TGI (SW-620 colon): > 100 µM | TGI (T-47D breast): > 100 µM | TGI (TK-10 renal): > 100 µM | TGI (U251 CNS): > 100 µM | TGI (UACC-257 melanoma): > 100 µM | TGI (UACC-62 melanoma): > 100 µM | TGI (UO-31 renal): > 100 µM
